ChEMBL document CHEMBL3885861, “Open TG-GATES”

Organism: Rattus norvegicus
Assay: Open TG-GATES - Regimen: Daily Repeat
Type: toxicity, organism-based, Sprague-Dawley
Parameters: regimen Daily Repeat, gender Male, age 6 weeks
Conditions: in vivo, po, 300 mg/kg, route gavage, dose level High; for APTT / Bas / Eos / Fbg / Hb / Ht / Lym / MCH / MCHC / MCV / Mono / Neu / PT / Plat / RBC / Ret / WBC: tissue Blood; for KIDNEY_L / KIDNEY_R / KIDNEY_TOTAL: tissue Kidney; for LIVER: tissue Liver; for A/G / ALP / ALT / AST / BUN / CRE / Ca / Cl / DBIL / GLC / IP / K / LDH / Na / PL / RALB / TBIL / TC / TG / TP / gamma-GTP: tissue Plasma

Structure (SMILES): Clc1c(Cl)c(Cl)c(Cl)c(Cl)c1Cl [PERCHLOROBENZENE]
- TERMINAL_BW (72 h, time 3 day): 226 g
- APTT (72 h, time 3 day): 15.9 s
- Bas (72 h, time 3 day): 0%
- Eos (72 h, time 3 day): 1.2%
- Fbg (72 h, time 3 day): 225.4 mg/dL
- Hb (72 h, time 3 day): 14.3 g/dL
- Ht (72 h, time 3 day): 42.9%
- Lym (72 h, time 3 day): 71.2%
- MCH (72 h, time 3 day): 21.6 pg
- MCHC (72 h, time 3 day): 33.2%
- MCV (72 h, time 3 day): 65.2 fL
- Mono (72 h, time 3 day): 10.6%
- Neu (72 h, time 3 day): 16.8%
- PT (72 h, time 3 day): 11 s
- Plat (72 h, time 3 day): 98.4 x10_4/uL
- RBC (72 h, time 3 day): 658.8 x10_4/ul
- Ret (72 h, time 3 day): 8%
- WBC (72 h, time 3 day): 106.3 x10_2/uL
- KIDNEY_L (72 h, time 3 day): 1 g
- KIDNEY_R (72 h, time 3 day): 1 g
- KIDNEY_TOTAL (72 h, time 3 day): 2 g
- LIVER (72 h, time 3 day): 13.7 g
- A/G (72 h, time 3 day): 2.1
- ALP (72 h, time 3 day): 720.6 IU/L
- ALT (72 h, time 3 day): 41 IU/L
- AST (72 h, time 3 day): 64.8 IU/L
- BUN (72 h, time 3 day): 15 mg/dL
- CRE (72 h, time 3 day): 0.6 mg/dL
- Ca (72 h, time 3 day): 10.7 mg/dL
- Cl (72 h, time 3 day): 105.8 meq/L
- DBIL (72 h, time 3 day): 0.002 mg/dL
- GLC (72 h, time 3 day): 184 mg/dL
- IP (72 h, time 3 day): 8.3 mg/dL
- K (72 h, time 3 day): 5.1 meq/L
- LDH (72 h, time 3 day): 186 IU/L
- Na (72 h, time 3 day): 138.8 meq/L
- PL (72 h, time 3 day): 165.8 mg/dL
- RALB (72 h, time 3 day): 3.9 g/dL
- TBIL (72 h, time 3 day): 0.5 mg/dL
- TC (72 h, time 3 day): 92.2 mg/dL
- TG (72 h, time 3 day): 160.4 mg/dL
- TP (72 h, time 3 day): 5.7 g/dL
- gamma-GTP (72 h, time 3 day): 1.4 IU/L
- TERMINAL_BW ([…], time 7 day): 262.7 g
- TERMINAL_BW ([…], time 14 day): 310.5 g
- TERMINAL_BW ([…], time 28 day): 358.3 g
- APTT ([…], time 7 day): 16.1 s
- Bas ([…], time 7 day): 0%
- Eos ([…], time 7 day): 1%
- Fbg ([…], time 7 day): 255.6 mg/dL
- Hb ([…], time 7 day): 14.2 g/dL
- Ht ([…], time 7 day): 43.1%
- Lym ([…], time 7 day): 71.2%
- MCH ([…], time 7 day): 21.5 pg
- MCHC ([…], time 7 day): 33%
- MCV ([…], time 7 day): 65 fL
- Mono ([…], time 7 day): 9.4%
- Neu ([…], time 7 day): 18.4%
- PT ([…], time 7 day): 11.2 s
- Plat ([…], time 7 day): 115 x10_4/uL
- RBC ([…], time 7 day): 662 x10_4/ul
- Ret ([…], time 7 day): 6.3%
- WBC ([…], time 7 day): 117.1 x10_2/uL
- APTT ([…], time 14 day): 20.8 s
- Bas ([…], time 14 day): 0%
- Eos ([…], time 14 day): 1.2%
- Fbg ([…], time 14 day): 280.2 mg/dL
- Hb ([…], time 14 day): 13.9 g/dL
- Ht ([…], time 14 day): 41.6%
- Lym ([…], time 14 day): 67.8%
- MCH ([…], time 14 day): 20.7 pg
- MCHC ([…], time 14 day): 33.3%
- MCV ([…], time 14 day): 62.1 fL
- Mono ([…], time 14 day): 14.8%
- Neu ([…], time 14 day): 16.4%
- PT ([…], time 14 day): 12.7 s
- Plat ([…], time 14 day): 120.7 x10_4/uL
- RBC ([…], time 14 day): 669.4 x10_4/ul
- Ret ([…], time 14 day): 4.2%
- WBC ([…], time 14 day): 140.9 x10_2/uL
- APTT ([…], time 28 day): 22.1 s
- Bas ([…], time 28 day): 0%
- Eos ([…], time 28 day): 1.8%
- Fbg ([…], time 28 day): 305.4 mg/dL
- Hb ([…], time 28 day): 15.1 g/dL
- Ht ([…], time 28 day): 45.5%
- Lym ([…], time 28 day): 73.2%
- MCH ([…], time 28 day): 19.4 pg
- MCHC ([…], time 28 day): 33.2%
- MCV ([…], time 28 day): 58.4 fL
- Mono ([…], time 28 day): 11.8%
- Neu ([…], time 28 day): 13.4%
- PT ([…], time 28 day): 14 s
- Plat ([…], time 28 day): 92 x10_4/uL
- RBC ([…], time 28 day): 779.6 x10_4/ul
- Ret ([…], time 28 day): 2.9%
- WBC ([…], time 28 day): 161.2 x10_2/uL
- KIDNEY_L ([…], time 7 day): 1.2 g
- KIDNEY_R ([…], time 7 day): 1.3 g
- KIDNEY_TOTAL ([…], time 7 day): 2.5 g
- KIDNEY_L ([…], time 14 day): 1.4 g
- KIDNEY_R ([…], time 14 day): 1.3 g
- KIDNEY_TOTAL ([…], time 14 day): 2.7 g
- KIDNEY_L ([…], time 28 day): 1.6 g
- KIDNEY_R ([…], time 28 day): 1.6 g
- KIDNEY_TOTAL ([…], time 28 day): 3.3 g
- LIVER ([…], time 7 day): 18.4 g
- LIVER ([…], time 14 day): 24.3 g
- LIVER ([…], time 28 day): 31 g
- A/G ([…], time 7 day): 2.1
- ALP ([…], time 7 day): 604.6 IU/L
- ALT ([…], time 7 day): 35.6 IU/L
- AST ([…], time 7 day): 55.4 IU/L
- BUN ([…], time 7 day): 15.8 mg/dL
- CRE ([…], time 7 day): 0.7 mg/dL
- Ca ([…], time 7 day): 10.9 mg/dL
- Cl ([…], time 7 day): 104.4 meq/L
- DBIL ([…], time 7 day): 0.01 mg/dL
- GLC ([…], time 7 day): 173.4 mg/dL
- IP ([…], time 7 day): 8.9 mg/dL
- K ([…], time 7 day): 4.7 meq/L
- LDH ([…], time 7 day): 178.4 IU/L
- Na ([…], time 7 day): 138.8 meq/L
- PL ([…], time 7 day): 205.8 mg/dL
- RALB ([…], time 7 day): 4.2 g/dL
- TBIL ([…], time 7 day): 0.4 mg/dL
- TC ([…], time 7 day): 124.6 mg/dL
- TG ([…], time 7 day): 147.2 mg/dL
- TP ([…], time 7 day): 6.2 g/dL
- gamma-GTP ([…], time 7 day): 2.6 IU/L
- A/G ([…], time 14 day): 2
- ALP ([…], time 14 day): 379.8 IU/L
- ALT ([…], time 14 day): 32.8 IU/L
- AST ([…], time 14 day): 51.6 IU/L
- BUN ([…], time 14 day): 17.2 mg/dL
- CRE ([…], time 14 day): 0.6 mg/dL
- Ca ([…], time 14 day): 10.6 mg/dL
- Cl ([…], time 14 day): 107.4 meq/L
- DBIL ([…], time 14 day): 0.01 mg/dL
- GLC ([…], time 14 day): 165.6 mg/dL
- IP ([…], time 14 day): 8 mg/dL
- K ([…], time 14 day): 4.6 meq/L
- LDH ([…], time 14 day): 199.6 IU/L
- Na ([…], time 14 day): 140.4 meq/L
- PL ([…], time 14 day): 199.6 mg/dL
- RALB ([…], time 14 day): 4.4 g/dL
- TBIL ([…], time 14 day): 0.4 mg/dL
- TC ([…], time 14 day): 124 mg/dL
- TG ([…], time 14 day): 144.4 mg/dL
- TP ([…], time 14 day): 6.8 g/dL
- gamma-GTP ([…], time 14 day): 4 IU/L
- A/G ([…], time 28 day): 1.8
- ALP ([…], time 28 day): 213.2 IU/L
- ALT ([…], time 28 day): 41.6 IU/L
- AST ([…], time 28 day): 43.8 IU/L
- BUN ([…], time 28 day): 19.2 mg/dL
- CRE ([…], time 28 day): 0.7 mg/dL
- Ca ([…], time 28 day): 10.8 mg/dL
- Cl ([…], time 28 day): 105.4 meq/L
- DBIL ([…], time 28 day): 0.038 mg/dL
- GLC ([…], time 28 day): 151 mg/dL
- IP ([…], time 28 day): 8.4 mg/dL
- K ([…], time 28 day): 5 meq/L
- LDH ([…], time 28 day): 163.2 IU/L
- Na ([…], time 28 day): 143 meq/L
- PL ([…], time 28 day): 175 mg/dL
- RALB ([…], time 28 day): 4.7 g/dL
- TBIL ([…], time 28 day): 0.3 mg/dL
- TC ([…], time 28 day): 107.6 mg/dL
- TG ([…], time 28 day): 174 mg/dL
- TP ([…], time 28 day): 7.3 g/dL
- gamma-GTP ([…], time 28 day): 7.8 IU/L
